Measurements taken from ChEMBL document CHEMBL4402585 (J Med Chem, 2020).
Calls of active or inactive are those of the source. The rule behind the calls is not given here.

Columns and labels:
[1] = target: T1, Bromodomain-containing protein 4 (Homo sapiens, UniProt O60885); experiment: Inhibition of HSGRGK(Ac)GGK(Ac)GLGK(Ac)GGAK(Ac)RHRK(Biotin)-OH binding to recombinant human His6-tagged BRD4 bromodomain 1 expressed in Escherichia coli BL21 (DE3)-R3-pRARE2 cells preincubated for 30 mins followed by HSGRGK(Ac)GGK(Ac)GLGK(Ac)GGAK(Ac)RHRK(Biotin)-OH addition and measured after 30 mins by Alphascreen assay
[2] = target: T1, Bromodomain-containing protein 4; experiment: (§1) Inhibition of SGRG-K(Ac)-GG-K(Ac)-GLG-K(Ac)-GGA-K(Ac)-RHRKVGG-K-Biotin binding to N-terminal His6-tagged BRD4 bromodomain 1 (49 to 170 residues) (unknown origin) expressed in Escherichia coli BL21 (DE3) preincubated for 15 mins followed by biotin-labeled H4 peptide addition and measured after 10 mins by Alphascreen assay
[3] = target: T1, Bromodomain-containing protein 4; experiment: as §1, with “2 (344” for “1 (49”, “455” for “170”
[4] = target: Histone acetyltransferase p300 (Homo sapiens, UniProt Q09472); experiment: Inhibition of MSGRGK(Ac)-GGK(Ac)GLGK(Ac)GGAKRHR-biotin binding to EP300 (1040 to 1160 residues) (unknown origin) expressed in Escherichia coli BL21 (DE3) by Alphascreen assay
MV4-11 [5] = experiment: Antiproliferative activity against human MV4-11 cells assessed as reduction in cell viability measured after 72 hrs by Celltitre-glo luminescence assay; type: functional, cell-based; conditions: MV4-11, 72 h
[6] = Clearance in human liver microsomes at 0.1 uM preincubated for 10 mins followed by NADPH addition and measured up to 60 mins by LC-MS/MS analysis; type: ADME, Microsome; conditions: 1 h
[7] = Clearance in rat liver microsomes at 0.1 uM preincubated for 10 mins followed by NADPH addition and measured up to 60 mins by LC-MS/MS analysis; type: ADME, Microsome; conditions: 1 h
[8] = Clearance in mouse liver microsomes at 0.1 uM preincubated for 10 mins followed by NADPH addition and measured up to 60 mins by LC-MS/MS analysis; type: ADME, Microsome; conditions: 1 h
[9] = Half life in human liver microsomes at 0.1 uM preincubated for 10 mins followed by NADPH addition and measured up to 60 mins by LC-MS/MS analysis; type: ADME, Microsome
[10] = Half life in rat liver microsomes at 0.1 uM preincubated for 10 mins followed by NADPH addition and measured up to 60 mins by LC-MS/MS analysis; type: ADME, Microsome
[11] = Half life in mouse liver microsomes at 0.1 uM preincubated for 10 mins followed by NADPH addition and measured up to 60 mins by LC-MS/MS analysis; type: ADME, Microsome
[12] = target: T1, Bromodomain-containing protein 4
Description: Binding affinity to N-terminal His6-tagged BRD4 bromodomain 1 (49 to 170 residues) (unknown origin) expressed in Escherichia coli BL21 (DE3) assessed as change in melting temperature at 1:100 molar ratio by SYPRO orange dye based fluorescence thermal shift assay

[13] = Half life in Sprague-Dawley rat at 3 mg/kg, po by LC-MS/MS analysis; type: ADME, organism-based; conditions: in vivo
[14] = Cmax in Sprague-Dawley rat at 3 mg/kg, po by LC-MS/MS analysis; type: ADME, organism-based; set-up: dose 3 mg/kg, route oral; conditions: in vivo
[15] = AUC (0 to t) in Sprague-Dawley rat at 3 mg/kg, po by LC-MS/MS analysis; type: ADME, organism-based; conditions: in vivo
[16] = Oral bioavailability in Sprague-Dawley rat at 3 mg/kg by LC-MS/MS analysis; type: ADME, organism-based; conditions: in vivo
[17] = Half life in Sprague-Dawley rat at 1 mg/kg, iv by LC-MS/MS analysis; type: ADME, organism-based; conditions: in vivo
[18] = Volume of distribution at steady state in Sprague-Dawley rat at 1 mg/kg, iv by LC-MS/MS analysis; type: ADME, organism-based; conditions: in vivo, read-out: Vdss
[19] = AUC (0 to t) in Sprague-Dawley rat at 1 mg/kg, iv by LC-MS/MS analysis; type: ADME, organism-based; conditions: in vivo
[20] = Clearance in Sprague-Dawley rat at 1 mg/kg, iv by LC-MS/MS analysis; type: ADME, organism-based; conditions: in vivo
[21] = target: T1, Bromodomain-containing protein 4; experiment: Inhibition of BRD4 (unknown origin)
Kasumi 1 = experiment: Antiproliferative activity against human Kasumi-1 cells assessed as reduction in cell viability measured after 72 hrs by Celltitre-glo luminescence assay; type: functional, cell-based; conditions: Kasumi 1, 72 h
RS4-11 = experiment: Antiproliferative activity against human RS4:11 cells assessed as reduction in cell viability measured after 72 hrs by Celltitre-glo luminescence assay; type: functional, cell-based; conditions: RS4-11, 72 h
MM1.S = experiment: Antiproliferative activity against human MM1S cells assessed as reduction in cell viability measured after 72 hrs by Celltitre-glo luminescence assay; type: functional, cell-based
MV4-11 [22] = experiment: Cell cycle arrest in human MV4-11 cells assessed as increase in accumulation at G1-phase at 125 nM measured after 24 hrs by propidium iodide staining based flow cytometry; type: functional
MV4-11 [23] = experiment: Antitumor activity against human MV4-11 cells xenografted in mouse assessed as tumor growth inhibition at 50 mg/kg, po administered for 28 days and measured every 2 to 3 days during compound dosing relative to control; type: functional; conditions: MV4-11, po, read-out: TGI

Histone acetyltransferase p300, sequence (Q09472 whole entry, the tested form may be a part): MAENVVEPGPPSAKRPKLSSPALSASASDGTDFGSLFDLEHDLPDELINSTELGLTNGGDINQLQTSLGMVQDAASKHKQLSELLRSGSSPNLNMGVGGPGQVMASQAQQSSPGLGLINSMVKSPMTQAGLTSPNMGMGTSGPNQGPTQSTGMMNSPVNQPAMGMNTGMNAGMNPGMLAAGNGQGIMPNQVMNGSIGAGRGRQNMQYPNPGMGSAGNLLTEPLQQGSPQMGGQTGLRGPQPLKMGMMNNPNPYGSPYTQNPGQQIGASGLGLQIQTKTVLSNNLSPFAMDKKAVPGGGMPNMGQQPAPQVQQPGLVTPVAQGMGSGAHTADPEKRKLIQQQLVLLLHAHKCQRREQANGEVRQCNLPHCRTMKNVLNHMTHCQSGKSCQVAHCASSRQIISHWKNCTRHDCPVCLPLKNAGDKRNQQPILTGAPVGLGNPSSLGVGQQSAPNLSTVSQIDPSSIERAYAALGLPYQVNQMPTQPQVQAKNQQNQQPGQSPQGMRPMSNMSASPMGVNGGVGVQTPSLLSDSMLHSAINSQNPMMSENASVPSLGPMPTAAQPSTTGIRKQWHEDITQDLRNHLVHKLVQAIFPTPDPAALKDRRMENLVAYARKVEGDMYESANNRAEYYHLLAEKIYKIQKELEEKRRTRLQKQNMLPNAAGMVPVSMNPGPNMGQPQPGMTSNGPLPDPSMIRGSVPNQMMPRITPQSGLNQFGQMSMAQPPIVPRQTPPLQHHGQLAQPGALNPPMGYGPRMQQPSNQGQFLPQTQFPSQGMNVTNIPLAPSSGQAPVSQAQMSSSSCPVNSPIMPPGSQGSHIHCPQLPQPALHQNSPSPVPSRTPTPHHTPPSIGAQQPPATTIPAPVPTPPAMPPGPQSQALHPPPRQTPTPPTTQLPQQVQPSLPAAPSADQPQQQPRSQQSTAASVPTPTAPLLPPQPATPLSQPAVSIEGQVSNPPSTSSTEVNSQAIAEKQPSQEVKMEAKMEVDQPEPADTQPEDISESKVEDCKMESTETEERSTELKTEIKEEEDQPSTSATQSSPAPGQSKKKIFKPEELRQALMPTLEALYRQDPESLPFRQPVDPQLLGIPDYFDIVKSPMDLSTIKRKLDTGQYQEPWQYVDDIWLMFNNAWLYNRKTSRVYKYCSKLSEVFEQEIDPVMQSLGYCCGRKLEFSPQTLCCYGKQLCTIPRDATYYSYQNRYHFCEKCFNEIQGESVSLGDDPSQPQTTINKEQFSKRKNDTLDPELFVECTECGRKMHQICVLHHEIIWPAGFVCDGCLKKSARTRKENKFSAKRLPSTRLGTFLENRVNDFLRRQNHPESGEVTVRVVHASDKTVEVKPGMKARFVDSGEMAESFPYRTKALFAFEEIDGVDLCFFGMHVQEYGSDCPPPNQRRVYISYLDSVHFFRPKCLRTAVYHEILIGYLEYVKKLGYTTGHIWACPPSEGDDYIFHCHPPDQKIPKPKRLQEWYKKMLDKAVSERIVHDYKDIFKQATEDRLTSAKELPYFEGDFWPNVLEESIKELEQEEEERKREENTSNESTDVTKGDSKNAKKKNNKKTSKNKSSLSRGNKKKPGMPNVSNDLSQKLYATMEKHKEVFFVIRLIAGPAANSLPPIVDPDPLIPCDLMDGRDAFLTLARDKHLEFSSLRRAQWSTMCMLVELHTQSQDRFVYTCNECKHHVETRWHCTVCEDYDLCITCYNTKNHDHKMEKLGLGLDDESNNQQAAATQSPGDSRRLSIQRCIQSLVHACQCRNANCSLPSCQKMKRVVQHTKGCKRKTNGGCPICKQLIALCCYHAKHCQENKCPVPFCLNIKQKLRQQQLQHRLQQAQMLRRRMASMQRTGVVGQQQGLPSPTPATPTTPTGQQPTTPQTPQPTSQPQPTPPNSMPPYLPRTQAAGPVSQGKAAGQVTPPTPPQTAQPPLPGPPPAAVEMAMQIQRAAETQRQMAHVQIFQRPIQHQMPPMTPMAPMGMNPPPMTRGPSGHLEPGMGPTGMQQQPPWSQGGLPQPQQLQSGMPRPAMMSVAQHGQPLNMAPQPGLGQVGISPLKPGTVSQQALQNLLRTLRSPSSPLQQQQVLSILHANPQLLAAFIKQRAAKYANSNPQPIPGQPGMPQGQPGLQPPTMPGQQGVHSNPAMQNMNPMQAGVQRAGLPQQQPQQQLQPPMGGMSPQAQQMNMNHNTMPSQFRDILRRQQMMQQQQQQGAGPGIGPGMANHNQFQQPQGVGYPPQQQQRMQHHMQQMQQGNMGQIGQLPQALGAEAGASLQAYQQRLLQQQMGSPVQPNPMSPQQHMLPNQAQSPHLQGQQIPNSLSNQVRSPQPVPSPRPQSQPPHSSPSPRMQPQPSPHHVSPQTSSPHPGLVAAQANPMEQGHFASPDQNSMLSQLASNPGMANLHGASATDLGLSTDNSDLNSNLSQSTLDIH

| Compound | IC50 [2] [µM] | IC50 [3] [µM] | IC50 [4] [µM] | IC50 (MV4-11 [5]) [µM] | ΔTm [12] [°C] | other results |
| --- | --- | --- | --- | --- | --- | --- |
| CC(=O)C[C@@H]1N=C(c2ccc(Cl)cc2)c2c(sc(C)c2C)-n2c(C)nnc21 | – | – | – | – | – | IC50 [1]: 0.077 µM |
| CCS(=O)(=O)Cc1ccc(Oc2ccc(F)cc2F)c(-c2cc(C)c3c(=O)[nH]ccn23)c1 | 0.0047 | 0.0074 | 18.6 | 0.0065 | > 1 | Microsomal intrinsic clearance [6]: 46 mL/min/g; Intrinsic clearance [7]: 61.9 mL/min/g; Microsomal intrinsic clearance [8]: 175 mL/min/g; half-life at 0.1 µM [9]: 46.3 min; half-life at 0.1 µM [10]: 33.9 min; half-life at 0.1 µM [11]: 12 min |
| Cc1cc(-c2cc(NS(C)(=O)=O)ccc2OC2CCCCC2)n2cc[nH]c(=O)c12 | – | – | 5.4 | 0.0049 | > 1 | Microsomal intrinsic clearance [6]: 752 mL/min/g; Intrinsic clearance [7]: 2137 mL/min/g; Microsomal intrinsic clearance [8]: 333 mL/min/g; half-life at 0.1 µM [9]: 2.7 min; half-life at 0.1 µM [10]: 0.9 min; half-life at 0.1 µM [11]: 6.3 min |
| Cc1cc(-c2cc(CS(C)(=O)=O)cnc2Oc2ccc(F)cc2F)n2cc[nH]c(=O)c12 | 0.0074 | 0.0035 | 2.2 | 0.0142 | > 1 | Microsomal intrinsic clearance [6]: 26.1 mL/min/g; Intrinsic clearance [7]: 64.6 mL/min/g; Microsomal intrinsic clearance [8]: 35.7 mL/min/g; half-life at 0.1 µM [9]: 80.4 min; half-life at 0.1 µM [10]: 32.5 min; half-life at 0.1 µM [11]: 58.5 min; half-life [13]: 90 min; Cmax [14]: 0.16 µg/mL; AUC(0-t) [15]: 0.52 µg·h/mL; bioavailability [16]: 37.9%; half-life [17]: 48 min; Vd [18]: 1.9 L/kg; AUC(0-t) [19]: 0.457 µg·h/mL; clearance [20]: 2.25 L/h/kg |
| Cc1cc(-c2cc(NS(C)(=O)=O)ccc2Oc2ccccn2)n2cc[nH]c(=O)c12 | 0.0273 | 0.0259 | 12.6 | 0.211 | > 1 | – |
| Cc1cc(-c2cc(NS(C)(=O)=O)cnc2Oc2ccc(F)cc2F)n2cc[nH]c(=O)c12 | – | – | > 5 | 0.537 | > 1 | – |
| CCS(=O)(=O)Nc1ccc(Oc2ccc(F)cc2F)c(-c2cc(C)c3c(=O)[nH]ccn23)c1 | – | – | 4 | 0.0145 | > 1 | Microsomal intrinsic clearance [6]: 62 mL/min/g; Intrinsic clearance [7]: 264 mL/min/g; Microsomal intrinsic clearance [8]: 229 mL/min/g; half-life at 0.1 µM [9]: 33.9 min; half-life at 0.1 µM [10]: 7.9 min; half-life at 0.1 µM [11]: 9.1 min |
| Cc1sc2c(c1C)C(c1ccc(Cl)cc1)=N[C@@H](CC(N)=O)c1nnc(C)n1-2 | – | – | – | – | – | IC50 [21]: 0.092 to 0.112 µM |
| Cc1cc(-c2cc(S(C)(=O)=O)cnc2Oc2ccc(F)cc2F)n2cc[nH]c(=O)c12 | 0.288 | 0.229 | > 33 | – | > 1 | – |
| Cc1cc(-c2cc(S(=O)(=O)N(C)C)ccc2Oc2ccc(F)cc2F)n2cc[nH]c(=O)c12 | 0.198 | 0.0713 | > 100 | – | > 1 | – |
| Cc1cc(-c2cc(S(=O)(=O)NC(C)(C)C)ccc2Oc2ccc(F)cc2F)n2cc[nH]c(=O)c12 | 0.438 | 0.42 | > 100 | – | > 1 | – |
| Cc1cc(-c2cc(NS(C)(=O)=O)ccc2Oc2ccccc2)n2ccn(C)c(=O)c12 | > 2 | > 2 | – | – | > 1 | – |
| Cc1cc(-c2cc(NS(C)(=O)=O)ccc2Oc2ccccc2)n2cc[nH]c(=O)c12 | – | – | 25.1 | 0.0204 | > 1 | Microsomal intrinsic clearance [6]: 74 mL/min/g; Intrinsic clearance [7]: 3039 mL/min/g; Microsomal intrinsic clearance [8]: 116 mL/min/g; half-life at 0.1 µM [9]: 28.4 min; half-life at 0.1 µM [10]: 0.7 min; half-life at 0.1 µM [11]: 18.1 min |
| Cc1cc(-c2cc(NS(C)(=O)=O)ccc2Oc2ccc(F)cc2F)n2cc[nH]c(=O)c12 | – | – | 17.8 | 0.0366 | > 1 | Microsomal intrinsic clearance [6]: 36.2 mL/min/g; Intrinsic clearance [7]: 327 mL/min/g; Microsomal intrinsic clearance [8]: 141 mL/min/g; half-life at 0.1 µM [9]: 58.1 min; half-life at 0.1 µM [10]: 6.4 min; half-life at 0.1 µM [11]: 14.9 min |
| Cc1cc(-c2cc(NS(C)(=O)=O)ccc2Nc2ccccc2)n2cc[nH]c(=O)c12 | 0.068 | 0.0284 | > 33 | 0.257 | > 1 | – |
| Cc1cc(-c2cc(NS(C)(=O)=O)ccc2Cc2ccccc2)n2cc[nH]c(=O)c12 | > 1 | > 1 | 15.6 | – | > 1 | – |

| Compound | IC50 [2] [µM] | IC50 [3] [µM] | IC50 [4] [µM] | IC50 (MV4-11 [5]) [µM] | ΔTm [12] [°C] | other results |
| --- | --- | --- | --- | --- | --- | --- |
| Cc1cc(-c2cc(S(C)(=O)=O)ccc2Oc2ccc(F)cc2F)n2cc[nH]c(=O)c12 | 0.134 | 0.117 | > 33 | – | > 1 | – |
| Cc1sc2c(c1C)C(c1ccc(Cl)cc1)=N[C@@H](CC(=O)Nc1ccc(O)cc1)c1nnc(C)n1-2 [BIRABRESIB] | – | – | > 33 | 0.0463 | – | IC50 (Kasumi 1): 0.135 µM; IC50 (RS4-11): 0.416 µM; IC50 (MM1.S): 0.137 µM; Activity (MV4-11 [22]): Active; inhibition in vivo at 50 mg/kg (MV4-11 [23]): 62.3% |
| Cc1cc(Br)n2cc[nH]c(=O)c12 | – | – | – | – | 1.9 | – |
| Cc1cc(-c2cc(CS(C)(=O)=O)ccc2Oc2ccc(F)cc2F)n2cc[nH]c(=O)c12 | – | – | 16.5 | 0.0148 | > 1 | Microsomal intrinsic clearance [6]: 115 mL/min/g; Intrinsic clearance [7]: 112 mL/min/g; Microsomal intrinsic clearance [8]: 380 mL/min/g; half-life at 0.1 µM [9]: 18.2 min; half-life at 0.1 µM [10]: 18.8 min; half-life at 0.1 µM [11]: 5.5 min |
| CC(=O)Nc1ccc(Oc2ccc(F)cc2F)c(-c2cc(C)c3c(=O)[nH]ccn23)c1 | 0.219 | 0.0979 | > 100 | – | > 1 | – |
| Cc1cc(-c2cc(NS(C)(=O)=O)ccc2Oc2ccccc2)n2c1C(=O)NCC2 | 0.076 | 0.13 | 34.7 | – | – | – |
| Cc1cc(-c2cc(NS(C)(=O)=O)ccc2Oc2ccc(Cl)cc2)n2cc[nH]c(=O)c12 | 0.128 | 0.178 | 57 | 0.118 | > 1 | – |
| Cc1cc(-c2cc(S(=O)(=O)N(C)C)cnc2Oc2ccc(F)cc2F)n2cc[nH]c(=O)c12 | 0.74 | 0.772 | > 100 | – | > 1 | – |
| CCS(=O)(=O)Nc1ccc(Oc2ccc(F)cc2F)c(-c2cn(C)c(=O)c3[nH]ccc23)c1 [MIVEBRESIB] | – | 0.0027 | 0.063 | 0.0019 | > 1 | IC50 (Kasumi 1): 0.0063 µM; IC50 (RS4-11): 0.0064 µM; IC50 (MM1.S): 0.0065 µM |
| Cc1cc(-c2cc(NS(C)(=O)=O)ccc2OCC2CC2)n2cc[nH]c(=O)c12 | 0.0786 | 0.0772 | 25.1 | 0.185 | > 1 | – |
| Cc1cc(-c2ccccc2Oc2ccccc2)n2cc[nH]c(=O)c12 | 4.5 | 1.6 | – | – | > 1 | – |
| Cc1cc(-c2cc(NS(C)(=O)=O)ccc2Sc2ccccc2)n2cc[nH]c(=O)c12 | – | – | > 100 | – | > 1 | – |
| Cc1cc(-c2cc(NS(C)(=O)=O)ccc2OCC(C)(C)C)n2cc[nH]c(=O)c12 | > 1 | 0.669 | 26.9 | – | > 1 | – |
| Cc1cc(-c2cc(S(=O)(=O)NC(C)(C)C)cnc2Oc2ccc(F)cc2F)n2cc[nH]c(=O)c12 | 0.788 | 0.478 | > 100 | – | > 1 | – |
| Cc1cc(-c2cc(NS(C)(=O)=O)ccc2OC2CCOCC2)n2cc[nH]c(=O)c12 | – | – | > 33 | 0.387 | > 1 | – |
